According to paper PMC10510102, “Efficient Ligand Discovery Using Sulfur(VI) Fluoride Reactive Fragments” (ACS Chemical Biology, 2023):

Tests used:
[1] = target: BCL6 BTB/POZ domain (Homo sapiens, UniProt P41182, C67R/C84N/C8Q); test: Cocrystal structure with BCL6 BTB/POZ dimer; design: hBCL6-Flag 3Cmut (5-129) produced in house; FLAG (C); made in house; details: via a sulfonate ester
Text: Crystal structures of SFs 2f and 2s within BCL6 were generated to further investigate the binding mode of the fragments; this used a previously published protocol.[42] […] The twisted conformation of 2s could also represent a premodified state of the protein–SF complex, which may have become disrupted for 2f upon covalent modification with Tyr57 to afford the extended conformation observed.
(§1) The fluorescence intensity data from the individual replicates of each sample type were normalized and identically truncated within GraphPad Prism 5.0.4.11 These values were subsequently fitted to equation (4) corresponding to a Boltzmann sigmoid in order to obtain the melting temperature (“V50”; T m) of the protein:
(§2) Y=BOTTOM+((TOP+BOTTOM)/(1+exp((V50–X)/SLOPE))) (4)
(§3) The three obtained T m values were averaged to give a final T m value in each case. The normalized fluorescence data for the three replicates of each sample were averaged to yield a single dataset for each case, which were then plotted in GraphPad Prism 5.0.4 to give the plots shown in the manuscript.11
(§4) Table S9. Thermal melting temperatures of unmodified and covalently modified BCL6 BTB/POZ domain as determined by differential scanning fluorimetry measurements.
(§5) The arithmetic mean and standard deviation from three replicates are shown.
(§6) Hit Chemotype Protein Species Tm / °C ΔT m / °C […]

[2] = target: T1, BCL6 (Homo sapiens, UniProt P41182, C67R/C84N/C8Q); test: Kinetic analyses of covalent modification, intact protein LC-MS; format: binding; details: 0.5 μM BCL6; 5-100 μM SF; 4 °C
T1 construct: hBCL6-Flag-6H-Avi 3Cmut (5–129) produced as part of the GSK/GenScript collaboration; Flag (C); 6H (His6) (C); Avi (C)
Text: as §1, §2, §3, §4, §5, §6
meta-Substituted Benzamide BCL6 + 2g 70.4 ± 0.3 +11.7
Azetidinyl Fragments BCL6 + 2h 55.5 ± 0.1 −3.2 […]
8.3. Protocol for kinetic analyzes (BCL6) […]
BCL6 BTB domain (BCL65–129(C8Q,C67R,C84N)-FLAG, 10 µM) was incubated with each compound (500 µM, eq. 0.25% v/v DMSO) in 20 mM Tris pH 8.5 and 150 mM NaCl (2 mL) at 20 °C for 6 h. […] The protein-fragment complex was concentrated to >6 mg/mL, as determined by spectrophotometry. […]

Row | SMILES | residue covalently conjugated in cocrystal structure [1] | Ki [2] [µM]
1 | CN(C)C(=O)Nc1cccc(CNC(=O)Cc2ccc(S(=O)(=O)F)cc2)c1 [2f] | Tyr57 | 56
2 | CC(=O)Nc1cccc(CNC(=O)Cc2ccc(S(=O)(=O)F)cc2)c1 [2g] |  | 80
